Experiment: Plasma levels of the two forms of PEA
Settings: in vivo

With CCCCCCCCCCCCCCCC(=O)NCCO [PEA-um, palmitoylethanolamide] the “Plasma levels, PEA-um compared with PEA-m” value was “substantially the same”.

— patent US12370157B2, “Method for the treatment of COVID-19 infections with palmitoylethanolamide” (Epitech Group S.p.A., priority 2021, dated 2025)
